Reference: ChEMBL document CHEMBL1811835, “Intramolecular ion-pair prodrugs of zanamivir and guanidino-oseltamivir” (Bioorg Med Chem, 2011)

Tests used:
[1] = Octanol-water distribution coefficient, log D of the compound at pH 7.4 at 100 ug/mL; assay type: physicochemical
Plasma [2] = test: Stability in Sprague-Dawley rat plasma at 1 mM incubated for 24 hrs at 37 degC by LC-QTOF mass spectrometry; assay type: ADME, cell-free; settings: 1000 µM
Plasma [3] = test: Stability in Sprague-Dawley rat plasma at 1 mM incubated for 24 hrs at 37 degC by MALDI-TOF mass spectrometry; assay type: ADME, cell-free; settings: 1000 µM
[4] = Octanol-water distribution coefficient, log D of the compound at pH 6.5; assay type: physicochemical

| SMILES | logD ([1]; read-out: logD) | logD [4] | other results |
| --- | --- | --- | --- |
| CCOC(=O)C1=C[C@H](NC(=N)N)[C@@H](NC(C)=O)[C@H]([C@H](O)[C@H](O)CO)O1 | -0.28 | – | – |
| CC(=O)N[C@H]1[C@H]([C@H](O)[C@H](O)CO)OC(C(=O)OCCCOC(=O)c2ccc3ccccc3c2O)=C[C@@H]1NC(=N)N | 0.75 | – | Stability (Plasma [2]): Stable; Stability (Plasma [3]): Stable |
| CCOC(=O)C1=C[C@@H](OC(CC)CC)[C@H](NC(C)=O)[C@@H](NC(=N)N)C1 | 0.31 | -1.17 | – |
| CCC(CC)O[C@@H]1C=C(C(=O)OCCCOC(=O)c2ccc3ccccc3c2O)C[C@H](NC(=N)N)[C@H]1NC(C)=O | 0.82 | – | – |
| CCC(CC)O[C@@H]1C=C(C(=O)O)C[C@H](NC(=N)N)[C@H]1NC(C)=O | – | – | logD [1]: -0.13 |
| O=C(O)c1ccc2ccccc2c1O [CARBOXYNAPHTHOL] | 0.16 | 0.25 | – |
| CCC(CC)O[C@@H]1C=C(C(=O)O)C[C@H](N)[C@H]1NC(C)=O [OSELTAMIVIR CARBOXYLATE] | -1.5 | – | – |
| CCCCCCCOC(=O)C1=C[C@H](NC(=N)N)[C@@H](NC(C)=O)[C@H]([C@H](O)[C@H](O)CO)O1 [ZANAMIVIR HEPTYL ESTER] | – | -1.31 | – |
| CC(=O)N[C@H]1[C@H]([C@H](O)[C@H](O)CO)OC(C(=O)O)=C[C@@H]1N=C(N)N [ZANAMIVIR] | -1 | – | – |
